Assay results as given in patent publication US20170217946A1, “AMINO-SUBSTITUTED ISOXAZOLES” (Bayer Pharma Aktiengesellschaft, priority 2014, published 2017).
pIC50: −log10 of the molar value.

Molecular target: T1, human kinase Mps-1 (Homo sapiens, UniProt P33981)
T1 construct: human full length recombinant Mps-1 kinase; GST (N); purchased Invitrogen, Karslruhe, Germany PV4071
T1 sequence (P33981 1-857): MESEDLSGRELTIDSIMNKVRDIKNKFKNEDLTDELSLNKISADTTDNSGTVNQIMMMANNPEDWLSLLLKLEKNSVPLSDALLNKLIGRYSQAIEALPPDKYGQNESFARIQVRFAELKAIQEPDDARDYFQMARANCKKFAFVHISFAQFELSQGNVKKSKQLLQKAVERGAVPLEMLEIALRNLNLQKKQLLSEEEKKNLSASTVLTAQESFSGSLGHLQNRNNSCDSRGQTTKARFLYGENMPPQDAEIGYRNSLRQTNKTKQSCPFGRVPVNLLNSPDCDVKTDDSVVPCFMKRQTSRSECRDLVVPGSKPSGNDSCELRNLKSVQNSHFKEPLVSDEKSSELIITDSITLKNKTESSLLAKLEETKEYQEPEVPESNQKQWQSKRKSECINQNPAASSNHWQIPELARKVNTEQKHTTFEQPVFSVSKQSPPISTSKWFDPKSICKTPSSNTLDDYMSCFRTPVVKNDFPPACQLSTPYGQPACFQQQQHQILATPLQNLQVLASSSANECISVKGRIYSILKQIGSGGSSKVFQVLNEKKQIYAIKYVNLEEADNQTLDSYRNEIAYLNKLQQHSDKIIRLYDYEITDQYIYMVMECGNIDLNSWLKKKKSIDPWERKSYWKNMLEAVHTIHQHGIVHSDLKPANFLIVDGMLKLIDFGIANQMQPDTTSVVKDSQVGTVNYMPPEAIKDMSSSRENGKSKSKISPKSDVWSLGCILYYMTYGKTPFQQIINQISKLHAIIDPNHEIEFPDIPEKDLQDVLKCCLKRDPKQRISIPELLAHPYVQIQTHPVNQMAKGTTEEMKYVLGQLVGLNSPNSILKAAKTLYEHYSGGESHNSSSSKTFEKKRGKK
Assay: Mps-1 kinase assay (TR-FRET)
Format: biochemical
Conditions: 10 μM ATP; read-out: Mps1 avg (IC50)
Method: The human kinase Mps-1 phosphorylates a biotinylated substrate peptide. Detection of the phosphorylated product is achieved by time-resolved fluorescence resonance energy transfer (TR-FRET) from Europium-labelled anti-phospho-Serine/Threonine antibody as donor to streptavidin labelled with cross-linked allophycocyanin (SA-XLent) as acceptor. Compounds are tested for their inhibition of the kinase activity.
N-terminally GST-tagged human full length recombinant Mps-1 kinase (purchased from Invitrogen, Karslruhe, Germany, cat. no PV4071) was used. […]
The resulting mixture was incubated 1 h at 22° C. to allow the binding of the phosphorylated peptide to the anti-phospho(Ser/Thr)-Europium-antibody. Subsequently the amount of phosphorylated substrate was evaluated by measurement of the resonance energy transfer from the Europium-labelled anti-phospho(Ser/Thr) antibody to the Streptavidin-XLent. Therefore, the fluorescence emissions at 620 nm and 665 nm after excitation at 350 nm was measured in a Viewlux TR-FRET reader (PerkinElmer LAS, Rodgau-Jügesheinn, Germany). The “blank-corrected normalized ratio” (a Viewlux specific readout, similar to the traditional ratio of the emissions at 665 nm and at […], in which blank and Eu-donor crosstalk are subtracted from the 665 nm signal before the ratio is calculated) was taken as the measure for the amount of phosphorylated substrate. […]

Compound `Cc1noc(Nc2cnc(C(=O)NC3CCN(CC(F)F)CC3)cn2)c1C(=O)Nc1ccc(F)c(F)c1` [Example 1b, N-[1-(2,2-Difluoroethyl)piperidin-4-yl]-5-({4-[(3,4-difluorophenyl)carbamoyl]-3-methyl-1,2-oxazol-5-yl}amino)pyrazine-2-carboxamide] has a pIC50 of 4.80.
